The target of this test is T1, hCRTH2 receptor (Homo sapiens, UniProt Q9Y5Y4).
T1 construct: expressed in transfected cells; host or cells: HEK293
T1 sequence (Q9Y5Y4 1-395): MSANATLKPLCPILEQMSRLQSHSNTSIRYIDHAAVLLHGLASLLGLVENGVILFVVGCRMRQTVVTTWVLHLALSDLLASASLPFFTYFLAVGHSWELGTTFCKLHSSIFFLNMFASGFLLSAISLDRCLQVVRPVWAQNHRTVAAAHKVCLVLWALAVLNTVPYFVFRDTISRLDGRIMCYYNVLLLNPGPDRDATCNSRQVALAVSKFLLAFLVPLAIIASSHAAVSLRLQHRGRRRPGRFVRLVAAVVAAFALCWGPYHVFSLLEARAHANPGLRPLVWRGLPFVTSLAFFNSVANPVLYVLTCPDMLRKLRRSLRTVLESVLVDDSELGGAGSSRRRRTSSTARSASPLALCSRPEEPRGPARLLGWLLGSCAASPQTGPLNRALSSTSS
Kind of test: Radioligand displacement assay (3H-PGD2) on hCRTH2 receptor membranes. To be noted: antagonistic activity, 3H-PGD2 radioligand displacement, HEK293-hCRTH2 membranes. In kind it is binding.

A word on the pIC50: it is the negative decadic logarithm of the IC50, by convention in mol/L.

Structures are written as SMILES. pIC50: −log10 of the molar value.

`N#Cc1ccc2c(ccn2CCC(=O)N2CCc3ccccc3C2c2cc(Cl)ccc2OCC(=O)O)c1` (racemic) [Example 371] showed a pIC50 of 7.27. As for `O=C(O)COc1ccc(Cl)cc1C1c2ccccc2CCN1C(=O)CCn1ccc2ccncc21` (racemic) [Example 372], the figure is 6.22; as for `COc1cc2c(ccn2CCC(=O)N2CCc3ccccc3C2c2cc(Cl)ccc2OCC(=O)O)cn1` (racemic) [Example 373], 6.36; as for `COc1ccc2ccn(CCC(=O)N3CCc4ccccc4C3c3cc(Cl)ccc3OCC(=O)O)c2n1` (racemic) [Example 374], 7.91. As for `COc1cc2c(ccn2CCC(=O)N2CCc3ccccc3C2c2cc(Cl)ccc2OCC(=O)O)cc1Cl` (racemic) [Example 375], the figure is 7.09; as for `COc1cc(OC)c2ccn(CCC(=O)N3CCc4ccccc4C3c3cc(Cl)ccc3OCC(=O)O)c2n1` (racemic) [Example 376], 7.49; as for `COc1cc(OC)c2ccn(CCC(=O)N3CCc4ccccc4C3c3cc(Cl)ccc3OCC(=O)O)c2c1` (racemic) [Example 377], 8.01. In the case of `O=C(O)COc1ccc(Cl)cc1C1c2ccccc2CCN1C(=O)CCn1ccc2ccccc21` (racemic) [Example 378] it was 7.94; in that of `O=C(O)COc1ccc(Cl)cc1C1c2ccccc2CCN1C(=O)CCn1ccc2cc(F)ccc21` (racemic) [Example 379], 7.77; in that of `O=C(O)COc1ccc(Cl)cc1C1c2ccccc2CCN1C(=O)CCn1ccc2cccc(Cl)c21` (racemic) [Example 380], 7.61. Turning to `O=C(O)COc1ccc(Cl)cc1C1c2ccccc2CCN1C(=O)CCn1ccc2ncccc21` (racemic) [Example 381], the negative logarithm of the IC50 (pIC50) is 7.50. Molecule `COc1cccc2c1ccn2CCC(=O)N1CCc2ccccc2C1c1cc(Cl)ccc1OCC(=O)O` (racemic) [Example 382] showed a pIC50 of 7.68. In the case of `O=C(O)COc1ccc(Cl)cc1C1c2ccccc2CCN1C(=O)CCn1nc(Cl)c2ccccc21` (racemic) [Example 383] it was 8.07; in that of `Cc1ccc2ccn(CCC(=O)N3CCc4ccccc4C3c3cc(Cl)ccc3OCC(=O)O)c2c1` (racemic) [Example 384], 7.83. As for `O=C(O)COc1ccc(Cl)cc1C1c2ccccc2CCN1C(=O)CCn1ccc2cc(Cl)ccc21` (racemic) [Example 385], the figure is 7.29; as for `O=C(O)COc1ccc(Cl)cc1C1c2ccccc2CCN1C(=O)CCn1ccc2ccc(Cl)cc21` (racemic) [Example 386], 7.94. Molecule `O=C(O)COc1ccc(Cl)cc1C1c2ccccc2CCN1C(=O)CCn1ccc2c(F)cccc21` (racemic) [Example 387] had a pIC50 of 7.44. As for `O=C(O)COc1ccc(Cl)cc1C1c2ccccc2CCN1C(=O)CCn1ccc2ccc(F)cc21` (racemic) [Example 388], the figure is 7.59. In the case of `Cc1c(C)n(CCC(=O)N2CCc3ccccc3C2c2cc(Cl)ccc2OCC(=O)O)c2ccccc12` (racemic) [Example 389] it was 7.15; in that of `COc1ccc2ccn(CCC(=O)N3CCc4ccccc4C3c3cc(Cl)ccc3OCC(=O)O)c2c1` (racemic) [Example 390], 8.12; in that of `O=C(O)COc1ccc(Cl)cc1C1c2ccccc2CCN1C(=O)CCn1ccc2ncc(Cl)nc21` (racemic) [Example 404], 7.37. In the case of `O=C(O)COc1ccc(Cl)cc1C1c2ccccc2CCN1C(=O)CCn1c(C(F)(F)F)cc2ccccc21` (racemic) [Example 405] it was 6.35; in that of `COc1ccccc1OCC(=O)N1CCc2ccccc2C1c1cc(Cl)ccc1OCC(=O)O` (racemic) [Example 406], 7.57. In turn, `O=C(O)COc1ccc(Cl)cc1C1c2ccccc2CCN1C(=O)COc1ccc(F)cc1` (racemic) [Example 407] had a pIC50 of 7.46. As for `Cc1cccc(CCC(=O)N2CCc3ccccc3C2c2cc(Cl)ccc2OCC(=O)O)n1` (racemic) [Example 408], the figure is 6.75; as for `O=C(O)COc1ccc(Cl)cc1C1c2ccccc2CCN1C(=O)COc1ccccc1` (racemic) [Example 409], 7.13.

For `O=C(O)COc1ccc(Cl)cc1C1c2ccccc2CCN1C(=O)COc1ccccc1F` (racemic) [Example 410], the pIC50 is 7.15.

In the case of `O=C(O)COc1ccc(Cl)cc1C1c2ccccc2CCN1C(=O)COc1cccc2cccnc12` (racemic) [Example 411], the negative-log IC50 (pIC50) was 7.59. As for `O=C(O)COc1ccc(Cl)cc1C1c2ccccc2CCN1C(=O)COc1ccc(Cl)cc1` (racemic) [Example 412], the figure is 7.40; as for `O=C(O)COc1ccc(Cl)cc1C1c2ccccc2CCN1C(=O)COc1cccc(Cl)c1` (racemic) [Example 413], 7.15.

Consider `Cc1ccc(OCC(=O)N2CCc3ccccc3C2c2cc(Cl)ccc2OCC(=O)O)cc1` (racemic) [Example 414], for which the pIC50 was 6.90.

As to `COc1ccc(OCC(=O)N2CCc3ccccc3C2c2cc(Cl)ccc2OCC(=O)O)cc1` (racemic) [Example 415], the negative logarithm of the IC50 (pIC50) was 6.68. In the case of `O=C(O)COc1ccc(Cl)cc1C1c2ccccc2CCN1C(=O)COc1cccnc1` (racemic) [Example 416] it was 6.67. In the case of `COc1ccc([C@@H]2C[C@H]2C(=O)N2CCc3ccccc3C2c2cc(Cl)ccc2OCC(=O)O)cc1` (mixture of isomers) [Example 417] it was 6.73. Turning to `O=C(O)COc1ccc(Cl)cc1C1c2ccccc2CCN1C(=O)[C@@H]1C[C@H]1c1ccc(F)cc1` (mixture of isomers) [Example 418], the pIC50 was 7.79.

`O=C(O)COc1ccc(Cl)cc1C1c2ccccc2CCN1C(=O)[C@@H]1C[C@H]1c1ccc(C(F)(F)F)cc1` (mixture of isomers) [Example 419] had a pIC50 of 6.02. In the case of `Cc1ccc([C@@H]2C[C@H]2C(=O)N2CCc3ccccc3C2c2cc(Cl)ccc2OCC(=O)O)cc1` (mixture of isomers) [Example 420] it was 6.99.

Turning to `O=C(O)COc1ccc(Cl)cc1C1c2ccccc2CCN1C(=O)[C@@H]1C[C@H]1c1cccc(Cl)c1` (mixture of isomers) [Example 421], the negative logarithm of the IC50 (pIC50) is 7.62.

`Cc1ccccc1[C@@H]1C[C@H]1C(=O)N1CCc2ccccc2C1c1cc(Cl)ccc1OCC(=O)O` (mixture of isomers) [Example 422] showed a pIC50 of 8.25. In the case of `O=C(O)COc1ccc(Cl)cc1C1c2ccccc2CCN1C(=O)[C@@H]1C[C@H]1c1ccccc1C(F)(F)F` (mixture of isomers) [Example 423] it was 8.18; in that of `O=C(O)COc1ccc(Cl)cc1C1c2ccccc2CCN1C(=O)[C@@H]1C[C@H]1c1cccc(F)c1` (mixture of isomers) [Example 424], 7.92; in that of `COc1cccc([C@@H]2C[C@H]2C(=O)N2CCc3ccccc3C2c2cc(Cl)ccc2OCC(=O)O)c1` (mixture of isomers) [Example 425], 7.51. As for `O=C(O)COc1ccc(Cl)cc1C1c2ccccc2CCN1C(=O)[C@@H]1C[C@H]1c1cccc(C(F)(F)F)c1` (mixture of isomers) [Example 426], the figure is 7.03; as for `Cc1cccc([C@@H]2C[C@H]2C(=O)N2CCc3ccccc3C2c2cc(Cl)ccc2OCC(=O)O)c1` (mixture of isomers) [Example 427], 7.33. In the case of `O=C(O)COc1ccc(Cl)cc1C1c2ccc(F)cc2CCN1C(=O)[C@@H]1C[C@H]1c1ccccc1` (mixture of isomers) [Example 428] it was 8.88.

The values are drawn from US8575158B2, “1-phenyl-substituted heterocyclyl derivatives and their use as prostaglandin D2 receptor modulators” (Actelion Pharmaceuticals Ltd., priority 2010, dated 2013).
